How the values were obtained:
Assay type in all cases: in vivo
[1] = system: CHENOPODIUM ALBUM, L.; test: Postemergence herbicidal evaluation, CHEAL (Lambsquarters, Common)
Outline: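 Seedlings of common lambsquarters (Chenopodium album) were raised in jiffy flats for roughly two weeks, then sprayed postemergence through a nozzle at 40 psi with test compound dispersed in 50/50 acetone/water containing 0.5% TWEEN®20 surfactant. Plants were kept on greenhouse benches under standard care and rated visually on a 0-9 scale versus controls.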

[2] = system: CHENOPODIUM ALBUM, L.; test: Preemergence herbicidal evaluation, CHEAL (Lambsquarters, Common); details: rated four to five weeks after treatment
Outline: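 First, seeds in potting soil are sown atop soil in cups. Next, the surface is sprayed with test compound in aqueous acetone at roughly 0.125 to 0.50 kg per hectare. After four to five weeks of greenhouse care, each cup is scored 0-9 against a control.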

[3] = system: ORYZA SATIVA, L. TEBONNET; test: Preemergence herbicidal evaluation, ORYSAT (Rice, Tebonnet); details: rated four to five weeks after treatment
Excerpt: Results of herbicide evaluation are expressed on a rating scale (0-9). The scale is based upon a visual observation of plant stand, vigor, malformation, size, chlorosis and overall plant appearance as compared with a control.
The preemergence herbicidal activity of the test compounds of the present invention is exemplified by the following tests in which the seeds of a variety of monocotyledonous and dicotyledonous plants are separately mixed with potting soil and planted on top of approximately one inch of soil in separate pint cups. […] The treated cups are then placed on greenhouse benches, watered and cared for in accordance with conventional greenhouse procedures. From four to five weeks after treatment, the tests are terminated and each cup is examined and rated according to the rating system provided in Example 40.
The compounds evaluated are reported by compound number given in Example 40.

[4] = system: CYPERUS SEROTINUS, ROTTB.; test: Preemergence weed control under flooded paddy conditions, CYPSE (Flatsedge); details: preemergence, 3-4 weeks after treatment
Outline: (§1)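 Flooded paddy preemergence test: seeds/propagating organs in top 0.5 cm silt loam, water held 1.5-3 cm above soil. Dosing by pipette into flood water, aqueous/acetone 50/50 v/v, ~0.5, 0.25, 0.125, 0.063 kg/ha a.i. Greenhouse; read at 3-4 wk, 0-9 visual scale.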

[5] = system: […], PRESL.; test: Preemergence weed control under flooded paddy conditions, MOOVA (Monochoria); details: preemergence, 3-4 weeks after treatment
Outline: as §1

[6] = system: SAGITTARIA PYGMAEA, L.; test: Preemergence weed control under flooded paddy conditions, SAGPY (Arrowhead (Pygmaea)); details: preemergence, 3-4 weeks after treatment
Outline: as §1

[7] = system: ORYZA SATIVA, L. TEBONNET; test: Rice tolerance to post-transplant applications under flooded paddy conditions, ORYSAT (Rice, Tebonnet); details: post-transplant rice, 3-4 weeks after treatment
Outline: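 Post-transplant paddy test: compound applied 3 d after transplanting to flooded soil (1.5-3 cm water), ~0.063-0.5 kg/ha a.i., 50/50 aq/acetone. Silt loam, 2 × 10-d seedlings/pot. Greenhouse 3-4 wk, visual 0-9 score vs control.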

COC(=O)Cn1c(=O)n(C)c(=O)n(-c2cc(Oc3cc(Cl)c(Cl)cc3Cl)ccc2[N+](=O)[O-])c1=O [Compound 31, Methyl tetrahydro-3-methyl-5-[2-nitro-5-(2,4,5-trichlorophenoxy)phenyl]-2,4,6-trioxo-s-triazine-1(2H)-acetate]
CHEAL rating ([1]; Rate 0.125 kg/ha): 7.0
CHEAL rating ([1]; Rate 0.250 kg/ha): 7.0
CHEAL rating ([1]; Rate 0.500 kg/ha): 7.0
CHEAL herbicidal rating ([2]; Rate 0.125 kg/ha): 9.0
CHEAL herbicidal rating ([2]; Rate 0.250 kg/ha): 9.0
CHEAL herbicidal rating ([2]; Rate 0.500 kg/ha): 9.0
ORYSAT herbicidal rating ([3]; Rate 0.125 kg/ha): 3.0
ORYSAT herbicidal rating ([3]; Rate 0.250 kg/ha): 3.0
ORYSAT herbicidal rating ([3]; Rate 0.500 kg/ha): 3.0
Herbicidal effect rating, CYPSE ([4]; 0.063 kg/ha): 0.0
Herbicidal effect rating, CYPSE ([4]; 0.125 kg/ha): 0.0
Herbicidal effect rating, CYPSE ([4]; 0.250 kg/ha): 0.0
Herbicidal effect rating, CYPSE ([4]; 0.500 kg/ha): 0.0
Herbicidal effect rating, MOOVA ([5]; 0.063 kg/ha): 0.0
Herbicidal effect rating, MOOVA ([5]; 0.125 kg/ha): 0.0
Herbicidal effect rating, SAGPY ([6]; 0.063 kg/ha): 0.0
Herbicidal effect rating, SAGPY ([6]; 0.125 kg/ha): 0.0
Herbicidal effect rating, SAGPY ([6]; 0.250 kg/ha): 0.0
Herbicidal effect rating, SAGPY ([6]; 0.500 kg/ha): 0.0
Herbicidal effect rating, ORYSAT ([7]; 0.063 kg/ha): 0.0
Herbicidal effect rating, ORYSAT ([7]; 0.125 kg/ha): 0.0
Herbicidal effect rating, ORYSAT ([7]; 0.250 kg/ha): 1.0
Herbicidal effect rating, ORYSAT ([7]; 0.500 kg/ha): 2.0

From EP0745595A1, “3-(3-Aryloxyphenyl)-1-(substituted methyl)-s-triazine-2,4,6-oxo or thiotrione herbicidal agents” (American Cyanamid Company, priority 1995, dated 1996)
